In patent US20260256808A1, “Istaroxime-Containing Intravenous Formulation for the Treatment of Pre-Cardiogenic Shock and Cardiogenic Shock” (Windtree Therapeutics, Inc., priority 2022, published 2026):
Entries after “also recorded” stand apart in the source; their conditions may differ.

Tests used:
[1] = test system: patients hospitalized with ADHF and reduced LV systolic function; details: 0.5-1.0-1.5 μg/kg/min, cited from earlier work
[2] = test system: patients with ADHF; details: cited from earlier work
[3] = test system: patients with AHF and exhibiting pre-cardiogenic shock (SCAI stage B); assay: SEISMIC: randomized, double-blind, placebo-controlled study of 24 h istaroxime infusion in pre-cardiogenic shock; assay type: in vivo, human
Procedure: Pre-CS was defined as defined as systolic blood pressure (SBP)<90 mmHg without hypoperfusion, venous lactate >2 mmol/L and/or mechanical or inotropic support. The inclusion criteria included AHF-related SCAI stage B pre-CS, 18-85 years of age, an ongoing hospitalization for AHF, left ventricular ejection fraction <40%, persistent hypotension (SBP between 75 and 90 mmHg), heart rate of 75-150 bpm and no need at time of screening or planned use for 6 h thereafter of mechanical support or intravenous therapy to increase BR According to the stage B SCAI classification, patients with clinical signs of peripheral hypoperfusion, venous lactate >2 mmol/L and/or on mechanical support or treatment with intravenous vasodilators, inotropes or vasopressors were excluded. Other exclusion criteria were concomitant or planned treatment with oral digoxin (could be randomized if the plasma concentration of digoxin at screening was <0.5 ng/ml); acute coronary syndrome or stroke within the past 3 months; coronary artery bypass graft or percutaneous coronary intervention within the past month or planned in the next month; life-threatening ventricular arrhythmia or implantable cardioverter defibrillator shock within the past month; sustained ventricular tachycardia in the last 3 months or uncontrolled arrhythmia; fever >38° C.; estimated glomerular filtration rate (eGFR)[…]; serum potassium >5.3 or <3.5 mmol/L; stroke or transient ischaemic accident within the past 3 months; and acute respiratory distress syndrome.
The patients were randomized centrally, using an interactive response technology, to receive istaroxime or placebo at a ratio of 1:1. Study medication was supplied in uniquely-numbered kits containing identical vials of lyophilized powder (istaroxime plus lactose), reconstituted by adding 5 ml saline to the vial. Istaroxime was administered as a continuous infusion 1.0 μg/kg/min for 24 h. The infusion rate could be decreased at the discretion of the investigator based on the development of tolerability issues (such as nausea), significant bradycardia, or greater than desired BP elevation.
The primary efficacy endpoint was the area under the curve representing the change in SBP from baseline, start of study drug infusion, through 6 h (SBP AUC). The secondary endpoints included SBP AUC through 24 h; changes from baseline in SBP (particularly at 6 and 24 h), diastolic blood pressure (DBP) and mean arterial pressure (MAP); changes from baseline in heart rate (HR); treatment failure score (based on death, circulatory, respiratory, or renal mechanical support or intravenous inotrope or vasopressor treatment, and changes in SBP); treatment failure defined as death or need for circulatory, respiratory, or renal mechanical support or intravenous inotrope or vasopressor treatment; increase from baseline in SBP >5% and/or >10 mmHg; changes in quality of life measured by the EuroQol 5 Dimension 5 Level (EQ-5D-5L); change from baseline to 24 h in echocardiography parameters; changes in troponin and N-terminal pro-B-type natriuretic peptide (NT-proBNP); hospital readmission for heart failure and for any cause by day 30; in-hospital worsening heart failure to day 5; and length of hospital stay. In-hospital worsening heart failure was defined as worsening signs and/or symptoms of heart failure since the previous assessment that required an intensification of intravenous therapy for heart failure or mechanical ventilatory, renal, or circulatory support. The safety endpoints were assessed throughout the study and included the incidence of adverse events; changes in vital signs and in 12-lead electrocardiogram (ECG) parameters; incidence of clinically or haemodynamically significant episodes of supraventricular or ventricular arrhythmias detected by continuous ECG monitoring; standard laboratory parameters; renal function measures; cardiac troponin I or T; and mortality through day 30. […]

[4] = 24 h Post-Treatment, adjusted least square mean change
[5] = 24 h Post-Treatment, adjusted least square mean change, listed as istaroxime
[6] = 24 h Post-Treatment, mean, n = 29

**Q.** With `C[C@]12CCC(=NOCCN)C[C@@H]1C(=O)C[C@@H]1[C@@H]2CC[C@]2(C)C(=O)CC[C@@H]12` [Istaroxime] as the compound, how does the HR during infusion ([1]; 6-hour infusion) read?
**A.** Its HR during infusion is “tended to decrease”.

**Q.** And the SBP during infusion ([1]; 6-hour infusion)?
**A.** The SBP during infusion was “slightly increased in a dose-dependent manner”.

**Q.** And the “change from baseline in PCWP” value ([1]; after 6 h infusion, vs placebo, plateaued after 3 hours)?
**A.** The value was “dose-dependent improvements in PCWP”.

**Q.** And the E/Ea ratio ([2]; 0.5 μg/kg/min and 1.0 μg/kg/min infused for up to 24 hours, vs placebo)?
**A.** The E/Ea ratio was “an improvement in both treatment groups”.

**Q.** What about the diastolic function parameters ([2]; measured after 6 hours of infusion) of the same compound?
**A.** The diastolic function parameters was “significant improvements for most of the diastolic function parameters”.

**Q.** And the “adjusted SBP increase at 6 h” value ([3]; 6 h after infusion start, (SE), p=0.045 vs placebo)?
**A.** Its value is 12.3 (SE 1.71) mmHg.

**Q.** And the “Mitral Regurgitation Mild, number of patients” value ([3]; 24 h Post Treatment)?
**A.** Its value is 11.

**Q.** And the “Mitral Regurgitation Mild, share of patients” value ([3]; 24 h Post Treatment)?
**A.** The value was “(39%)”.

**Q.** What about the “Mitral Regurgitation Moderate, number of patients” value ([3]; 24 h Post Treatment) of the same compound?
**A.** The value was 16.

**Q.** And the “Mitral Regurgitation Moderate, share of patients” value ([3]; 24 h Post Treatment)?
**A.** Its value is “(57%)”.

**Q.** And the “Mitral Regurgitation None, number of patients” value ([3]; 24 h Post Treatment)?
**A.** Its value is 1.

**Q.** What about the “Mitral Regurgitation None, share of patients” value ([3]; 24 h Post Treatment) of the same compound?
**A.** Its value is “(4%)”.

**Q.** What about the “Cardiac Index, Change from Baseline” value [3, 4] of the same compound?
**A.** Its value is 0.156 L/min/m^2.

**Q.** And the “Cardiac Output, Change from Baseline” value [3, 4]?
**A.** Its value is 0.23 L/min.

**Q.** What about the “E/A Ratio, Change from Baseline” value [3, 4] of the same compound?
**A.** Its value is −0.380.

**Q.** What about the “E/Ea Ratio, Change from Baseline” value [3, 4] of the same compound?
**A.** Its value is −0.615.

**Q.** What about the “Ejection Time, Change from Baseline” value [3, 4] of the same compound?
**A.** The value was -2.807 ms.

**Q.** What about the “Inferior Vena Cava Diameter, Change from Baseline” value [3, 4] of the same compound?
**A.** The value was −2.503 mm.

**Q.** And the “Left Atrial Area, Change from Baseline” value [3, 4]?
**A.** The value was −1.817 cm^2.

**Q.** And the “Left Atrial Volume, Change from Baseline” value [3, 4]?
**A.** The value was -7.440 mL.

**Q.** And the “Left Ventricular Ejection Fraction, Change from Baseline” value [3, 4]?
**A.** Its value is 2.678%.

**Q.** And the “Left Ventricular End-Diastolic Diameter, Change from Baseline” value [3, 4]?
**A.** The value was −0.668 mm.

**Q.** And the “Left Ventricular End-Diastolic Volume, Change from Baseline” value [3, 4]?
**A.** The value was -6.501 mL.

**Q.** What about the “Left Ventricular End-Systolic Diameter, Change from Baseline” value [3, 4] of the same compound?
**A.** Its value is −0.719 mm.

**Q.** And the “Left Ventricular End-Systolic Volume, Change from Baseline” value [3, 4]?
**A.** Its value is -8.692 mL.

**Q.** And the “Pulmonary Artery Systolic Pressure, Change from Baseline” value [3, 4]?
**A.** Its value is −7.084 mmHg.

**Q.** And the “Stroke Volume Index, Change from Baseline” value [3, 4]?
**A.** The value was 4.001 ml/m^2.

**Q.** What about the “Tricuspid Annular Plane Systolic Excursion, Change from Baseline” value [3, 4] of the same compound?
**A.** Its value is 0.0860 mm.

**Q.** What about the “Cardiac Index, Change from Baseline” value [3, 5] of the same compound?
**A.** The value was 0.16 ± 0.1 L/min/m^2.

**Q.** What about the “Left Atrial Area, Change from Baseline” value [3, 5] of the same compound?
**A.** The value was −1.8+0.5 cm^2.

**Q.** And the “Left Ventricular End-Diastolic Volume, Change from Baseline” value [3, 5]?
**A.** The value was −6.5+4.9 ml.

**Q.** What about the “Left Ventricular End-Systolic Volume, Change from Baseline” value [3, 5] of the same compound?
**A.** Its value is −8.7+4.2 ml.

**Q.** What about the “Cardiac Index, Observed” value [3, 6] of the same compound?
**A.** Its value is 2.1 L/min/m^2.

**Q.** What about the “Cardiac Output, Observed” value [3, 6] of the same compound?
**A.** The value was 3.93 L/min.

**Q.** What about the “E/A Ratio, Observed” value [3, 6] of the same compound?
**A.** The value was 1.5.

**Q.** What about the “E/Ea Ratio, Observed” value [3, 6] of the same compound?
**A.** The value was 12.2.

**Q.** What about the “Ejection Time, Observed” value [3, 6] of the same compound?
**A.** The value was 219.0 ms.

**Q.** And the “Inferior Vena Cava Diameter, Observed” value [3, 6]?
**A.** Its value is 19.5 mm.

**Q.** What about the “Left Atrial Area, Observed” value [3, 6] of the same compound?
**A.** Its value is 27.1 cm^2.

**Q.** And the “Left Atrial Volume, Observed” value [3, 6]?
**A.** The value was 95.2 mL.

**Q.** What about the “Left Ventricular Ejection Fraction, Observed” value [3, 6] of the same compound?
**A.** The value was 29.5%.

**Q.** What about the “Left Ventricular End-Diastolic Diameter, Observed” value [3, 6] of the same compound?
**A.** The value was 61.3 mm.

**Q.** What about the “Left Ventricular End-Diastolic Volume, Observed” value [3, 6] of the same compound?
**A.** The value was 194.3 mL.

**Q.** And the “Left Ventricular End-Systolic Diameter, Observed” value [3, 6]?
**A.** The value was 52.8 mm.

**Q.** And the “Left Ventricular End-Systolic Volume, Observed” value [3, 6]?
**A.** Its value is 135.7 mL.

**Q.** And the “Pulmonary Artery Systolic Pressure, Observed” value [3, 6]?
**A.** The value was 36.8 mmHg.

**Q.** What about the “Stroke Volume Index, Observed” value [3, 6] of the same compound?
**A.** Its value is 28.3 ml/m^2.

**Q.** What about the “Tricuspid Annular Plane Systolic Excursion, Observed” value [3, 6] of the same compound?
**A.** Its value is 15.9 mm.

**Q.** What about the “adjusted change in SBP at 24 h” value ([3]; 24 h after infusion start, (SE), p=0.543 vs placebo) of the same compound?
**A.** The value was 17.1 (SE 2.36) mmHg.

**Q.** And the “change in DBP” value ([3]; FIG. 3C, up to 96 h, persisting beyond the 24 h of drug administration)?
**A.** The value was “increases were noted”.

**Q.** And the “change in MAP” value ([3]; FIG. 4A, persisting beyond the 24 h of drug administration)?
**A.** The value was “increases were noted”.

**Q.** What about the “adjusted mean 6 h AUC of change in SBP from baseline” value ([3]; infusion start to hour 6, istaroxime iv infusion 24 h, adjusted mean (SE), p=0.017 vs placebo) of the same compound?
**A.** Its value is 53.1 (SE 6.88) mmHg·h.

**Q.** What about the “adjusted mean 24 h SBP AUC” value ([3]; infusion start to hour 24, adjusted mean (SE), p=0.025 vs placebo) of the same compound?
**A.** The value was 291.2 (SE 27.5) mmHg·h.

**Q.** What about the “increase of adjusted mean 6 h SBP AUC versus placebo” value ([3]; istaroxime 53.1 vs placebo 30.9 mmHg·h) of the same compound?
**A.** Its value is 72%.

**Q.** And the “increase of adjusted mean 24 h SBP AUC versus placebo” value ([3]; istaroxime 291.2 vs placebo 208.7 mmHg·h)?
**A.** The value was 40%.

**Q.** What about the “effect on heart rate / pulse” value ([3]; patients with pre-cardiogenic shock) of the same compound?
**A.** The value was “without effects on pulse; also recorded: not by increasing the heart rate”.
